Results published in PMC5374409, “D11-Mediated Inhibition of Protein Kinase CK2 Impairs HIF-1α-Mediated Signaling in Human Glioblastoma Cells” (Pharmaceuticals, 2017).

Target: T1, protein kinase CK2 (CK2α) (Homo sapiens, UniProt P68400)
T1 construct: gene CSNK2A1
Test: radioactive kinase assay with recombinant CK2 and synthetic peptide, varied ATP, Michaelis-Menten re-plots
Assay type: biochemical

T1 sequence (P68400 1-335): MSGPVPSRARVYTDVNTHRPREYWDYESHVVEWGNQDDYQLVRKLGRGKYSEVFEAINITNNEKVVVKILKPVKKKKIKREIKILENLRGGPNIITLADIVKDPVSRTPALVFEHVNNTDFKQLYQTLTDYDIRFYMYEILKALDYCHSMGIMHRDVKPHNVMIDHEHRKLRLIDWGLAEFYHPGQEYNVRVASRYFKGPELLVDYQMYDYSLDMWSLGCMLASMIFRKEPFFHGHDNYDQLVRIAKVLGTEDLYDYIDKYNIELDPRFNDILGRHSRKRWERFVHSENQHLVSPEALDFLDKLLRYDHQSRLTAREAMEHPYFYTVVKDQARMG
T1 sequence (P67870 2-215 partner): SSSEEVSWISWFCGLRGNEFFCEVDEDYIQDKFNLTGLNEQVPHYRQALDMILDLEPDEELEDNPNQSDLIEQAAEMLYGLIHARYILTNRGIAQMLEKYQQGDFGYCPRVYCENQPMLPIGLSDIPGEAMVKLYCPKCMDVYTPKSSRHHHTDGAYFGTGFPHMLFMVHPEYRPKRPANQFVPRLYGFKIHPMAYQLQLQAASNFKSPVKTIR

For `COc1ccc(/N=C/c2c(O)ccc3c2oc2cc(Cl)c(O)c(Cl)c23)cc1` [D11, 1,3-dichloro-6-[(E)-((4-methoxyphenyl)imino)methyl]dibenzo(b,d)furan-2,7-diol], the Ki was 7.7 nM.
